{"source": "patent US20150209404A1", "about": "“CELLULAR BLOOD MARKERS FOR EARLY DIAGNOSIS OF ALS AND FOR ALS PROGRESSION” (YEDA RESEARCH AND DEVELOPMENT CO. LTD., priority 2010, published 2015)", "origin": "cited, not measured here", "conditions": "ALS patients; Copaxone given daily; both drugs effective in treating MS"}
{"substance": "glatiramer acetate [Copaxone]", "values": [{"measurement": "outcome of treatment in ALS", "result": "failed and were even detrimental"}]}
